The target of one assay is T1, ANT Cys^160 (Rattus norvegicus, UniProt Q09073).
T1 construct: Rat liver sub-mitochondrial particles were prepared by sonication and differential centrifugation; from tissue; host or cells: rat liver sub-mitochondrial particles
T1 sequence (Q09073 1-298): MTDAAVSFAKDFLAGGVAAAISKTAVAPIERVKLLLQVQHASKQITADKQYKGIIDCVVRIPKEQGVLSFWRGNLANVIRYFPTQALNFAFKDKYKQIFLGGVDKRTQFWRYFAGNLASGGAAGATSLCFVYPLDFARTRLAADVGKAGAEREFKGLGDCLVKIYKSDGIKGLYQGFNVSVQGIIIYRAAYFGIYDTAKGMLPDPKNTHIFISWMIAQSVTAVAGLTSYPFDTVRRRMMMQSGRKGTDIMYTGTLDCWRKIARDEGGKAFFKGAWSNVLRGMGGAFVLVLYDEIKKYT
The assay can be described thus: Labelling of ANT with eosin-5-maleimide (competition). The settings on record: 200 nmol GSAO per mg of protein, sub-mitochondrial particles. Format: binding. As for the experimental part:
Rat liver sub-mitochondrial particles were prepared by sonication and differential centrifugation according to Majima et al. (1998). The particles were suspended at 20 mg of protein per mL in 10 mM Tris, pH 7.2 buffer containing 250 mM sucrose and 0.2 mM EDTA and incubated without or with 200 nmol GSAO per mg of protein for 10 min at 25° C., followed by 20 nmol of eosin-5-maleimide per mg of protein for 1 min at 0° C. in the dark. The labelling was terminated by addition of 10 μmol of dithiothreitol per mg of protein. The proteins were resolved on 4-20% gradient iGels and the eosin-labelled ANT was visualised by UV transillumination using a Fluor-S™ Multilmager (Bio-Rad, Hercules, Calif.).

The test system of assay [1] is BAE cells. Briefly: Cell viability assay, attached cells (methylene blue), proliferating or growth-quiescent cells. The format is cell-based, bovine.
Experimental: BAE or HMEC-1 cells were seeded at a density of 10^4 cells per cell into 96 well plates and allowed to adhere overnight and then treated as indicated.
The subject of assay [2] is BAE cells. The assay can be described thus: Mitochondrial membrane potential (JC-1) and apoptosis (annexin V) by flow cytometry. Format: cell-based, bovine. The settings on record: 10% serum, 48 h. As for the experimental part: (§1) For measurements of superoxide levels with dihydroethidine, mitochondrial membrane potential with JC-1, mitochondrial mass with nonyl acridine orange, and apoptosis with annexin V, proliferating or growth-quiescent BAE cells were treated for 24 or 48 h with GSAO in six-well culture plates, then detached with trypsin/EDTA, washed once, and resuspended at 2×10^6 cells per mL in serum-free medium. Cells were then incubated for 15 min at room temperature with dihydroethidine (5 μM, Molecular Probes) or 30 min at room temperature with JC-1 (0.5 μg·mL^−1, Molecular Probes), annexin V-FITC (50 μl·mL^−1) (Pharmingen, La Jolla, Calif., USA), or acridine orange 10-nonyl bromide (5 μM, Molecular Probes). Cells were then washed once, resuspended in 0.5 mL serum-free medium, transferred to ice, and fluorescence was quantitated immediately by flow cytometry.
Background: A flow cytometer gives signals particle by particle.

The test system of assay [3] is BAE cells. Briefly: ATP assay (luciferin/luciferase). The format is cell-based, bovine. The following applies: 150 μM GSAO, 24 h. How it is done:
BAE cells in six-well culture plates were arrested for 24 h in 0.5% serum or left in 10% serum, then treated for 24 h with 0, 60 or 150 μM GSAO. The cells were washed once then resuspended in 0.4 mL PBS containing 0.3% bovine serum albumin. A 50 μl sample of cells was mixed with 50 μL water and 100 μL ATP releasing agent (Sigma) and ATP concentration was measured using a luciferin/luciferase ATP assay mix (Sigma). Light units were converted to ATP concentrations using an ATP standard in place of the 50 μL water. Cell number was counted using a Beckman Coulter Counter and mol of ATP was expressed per million cells.

Assay [4] has as its system BAE cells. Briefly: Mitochondrial mass (nonyl acridine orange uptake). The format is cell-based, bovine. The following applies: GSAO treatment 24 h, proliferating and growth-quiescent cells. As for the experimental part: as §1
For assay [5], the system named is BxPC-3 (human pancreatic carcinoma). Briefly: Proliferation arrest and loss of viability (cell number and propidium iodide, flow cytometry). Format: cell-based. The following applies: for IC50: BxPC-3, 48 h. As for the experimental part:
(§2) To distinguish between the anti-proliferative and pro-apoptotic effects of GSAO, treated cells were stained with propidium iodide (PI) to detect late-apoptotic or dead cells. The total number of cells and the proportion of cells that were PI-positive following 48 h treatment with GSAO were measured by flow cytometry.

Assay [6] has as its system HT1080 (human fibrosarcoma). The description is as above. Format: cell-based. The settings on record: HT1080, 48 h. As for the experimental part: as §2
For assay [7], the system named is BxPC-3 tumours. The assay can be described thus: Primary tumour growth assay. Format: in vivo, SCID mice. The following applies: 10 mg/kg/day s.c., SCID mice, BxPC-3. How it is done: (§3) Female 7 to 9 week old SCID or C57Bl6/J mice were used (Massachusetts General Hospital, Boston, Mass.). Mice were held in groups of 3 to 5 at a 12 hour day and night cycle and were given animal chow and water ad libidum. SCID or C57Bl6/J mice were anaesthetised by inhalation of isoflurane, the dorsal skin shaved and cleaned with ethanol, and a suspension of 2.5×10^6 BxPC-3, HT1080 or LLC cells in 0.2 mL of PBS, or saline for LLC cells, was injected S.C. in the proximal midline. LLC cells were prepared according to O'Reilly et al. (1997). Tumour volume was calculated using the relationship, a·b^2·0.52, where a is the longest and b the shortest diameter.

The next assay relates to LLC tumours. The assay can be described thus: Primary tumour growth assay. Format: in vivo. The settings on record: 10 mg/kg/day s.c., C57Bl6/J mice. How it is done: as §3
Assay [8] concerns BxPC-3 tumours. The assay can be described thus: Immunohistochemistry of tumour sections (CD31, PCNA, TUNEL). Format: in vivo, SCID mice. The following applies: day 31, GSAO- versus GSAA-treated tumours. An excerpt:
Tumours were fixed in Buffered Formalde-Fresh (Fisher Scientific, Fair Lawn, N.J.), embedded in paraffin and 5 μm thick sections were cut and placed on glass slides. Sections were stained with haematoxylin and eosin or for CD31, PCNA (Holmgren et al., 1995) or fragmented DNA (Gavrielli et al., 1992). […] The proliferative index was estimated by the percentage of cells scored under 400× magnification. A minimum of 1000 cells was counted in two separate sections. The apoptotic index was estimated by the percentage of cells scored under 400× magnification. A minimum of 1500 cells was counted in two separate sections.

Assay [9] concerns human pancreatic carcinoma BxPC-3 cells. The assay can be described thus: Cell proliferation and viability assay (MTT). The settings on record: 10% serum, 48 h; read-out: IC50 for proliferation arrest of BxPC-3 cells. The format is cell-based. As for the experimental part:
BAE or human pancreatic carcinoma BxPC-3 cells were seeded at a density of 10^3 cells per well into 96 well plates in DMEM containing 10% foetal bovine serum and allowed to adhere for 24 h. Cells were washed and incubated with DMEM containing 10% foetal bovine serum and GSAO or o-GSAO and cultured for a further 48 h. Some BAE cells were arrested for 24 h in medium containing 0.25% serum and cultured for a further 48 h in medium containing 0.25% or 10% serum, in the presence of GSAO or o-GSAO. Viable attached cells were determined using MTT.

Setting [10] is: read-out: Loss of Viability IC50.
Setting [11] is: read-out: Proliferation Arrest IC50.

Read-outs that look alike come from different tables or passages of the source.

`N[C@@H](CCC(=O)N[C@@H](CSCC(=O)Nc1ccc([As]=O)cc1)C(=O)NCC(=O)O)C(=O)O` (stereo partly shown) [GSAO, 4-(N—(S-glutathionylacetyl)amino)-phenylarsenoxide]: the “competition for eosine-maleimide alkylation of ANT Cys^160” value on ANT Cys^160 was “competed”. The “effect on viability of growth-quiescent BAE cells” value in the assay on BAE cells [1] is on record as “little effect”. Moreover, the “mitochondrial depolarisation (JC-1) and apoptosis (annexin V binding)” value with BAE cells [2] is “triggered mitochondrial depolarisation and induced apoptosis”. Further, the “cellular ATP levels in proliferating BAE cells” value in the assay with BAE cells [3] is listed as “reduced ATP levels in proliferating cells to that of growth-quiescent cells”. For the same compound, the mitochondrial mass entry with BAE cells [4] is recorded as “unchanged”. The IC50 in assay [5] (setting [10]) is above 320 µM; in assay [5] (setting [11]), above 320 µM; in assay [6] (setting [10]) it was 130 µM; in [6] (setting [11]) it was 95 µM; in [9], above 300 µM. Besides, the “concentration without effect on BxPC-3 proliferation relative to endothelial proliferation arrest” value in [5] (Table 1) was above 30 fold. The figures for the “inhibition of the rate of tumour growth” value in the assay with BxPC-3 tumours [7] and in the assay with LLC tumours were above 90% and around 50%, respectively. In the assay on BxPC-3 tumours [8], the “proliferative index (PCNA)” value is given as “the same”. In the assay with BxPC-3 tumours [8] (p<0.001), the “blood vessel density (CD31)” value was “significant reduction”. In addition, the “apoptotic index (TUNEL)” value in the assay with BxPC-3 tumours [8] (p=0.05) is listed as “significant increase”.
